Laboratory results from PubChem BioAssay (NCI).
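Where inhibition never reached the appropriate level, the endpoint shown equals the highest concentration tested. Otherwise, values were interpolated linearly from a five-concentration, 48-hour dose response in 96-well plates. Definition used: TGI = concentration required for complete inhibition of growth.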

Legend:
Assay in all cases: NCI tumour cell line growth inhibition, 48 h
MDA-MB-435 = tested on: MDA-MB-435
UACC-257 melanoma = tested on: UACC-257 melanoma
U251 CNS = tested on: U251 CNS
SF-295 CNS = tested on: SF-295 CNS
EKVX NSCLC = tested on: EKVX NSCLC
SK-MEL-28 melanoma = tested on: SK-MEL-28 melanoma
NCI-H226 lung = tested on: NCI-H226 lung
SR leukemia = tested on: SR leukemia
SF-539 CNS = tested on: SF-539 CNS
DU-145 prostate = tested on: DU-145 prostate
HOP-62 NSCLC = tested on: HOP-62 NSCLC
UO-31 renal = tested on: UO-31 renal
OVCAR-4 ovarian = tested on: OVCAR-4 ovarian
A549 NSCLC = tested on: A549 NSCLC
SK-OV-3 ovarian = tested on: SK-OV-3 ovarian
MCF7 breast = tested on: MCF7 breast
MALME-3M melanoma = tested on: MALME-3M melanoma
MOLT-4 leukemia = tested on: MOLT-4 leukemia
HCT-15 colon = tested on: HCT-15 colon
NCI/ADR-RES ovarian = tested on: NCI/ADR-RES ovarian
MDA-MB-231 breast = tested on: MDA-MB-231 breast
NCI-H23 lung = tested on: NCI-H23 lung
HL-60(TB) leukemia = tested on: HL-60(TB) leukemia
LOX IMVI melanoma = tested on: LOX IMVI melanoma
PC-3 prostate = tested on: PC-3 prostate
BT-549 breast = tested on: BT-549 breast
SF-268 CNS = tested on: SF-268 CNS
M14 melanoma = tested on: M14 melanoma
OVCAR-5 ovarian = tested on: OVCAR-5 ovarian
UACC-62 melanoma = tested on: UACC-62 melanoma
SK-MEL-2 melanoma = tested on: SK-MEL-2 melanoma
ACHN renal = tested on: ACHN renal
NCI-H460 lung = tested on: NCI-H460 lung
SNB-19 CNS = tested on: SNB-19 CNS
OVCAR-3 ovarian = tested on: OVCAR-3 ovarian
HS 578T breast = tested on: HS 578T breast
CCRF-CEM leukemia = tested on: CCRF-CEM leukemia
A498 renal = tested on: A498 renal
RXF 393 renal = tested on: RXF 393 renal
IGROV1 ovarian = tested on: IGROV1 ovarian
RPMI-8226 leukemia = tested on: RPMI-8226 leukemia
T-47D breast = tested on: T-47D breast
OVCAR-8 ovarian = tested on: OVCAR-8 ovarian
KM12 colon = tested on: KM12 colon
SW-620 colon = tested on: SW-620 colon
NCI-H522 lung = tested on: NCI-H522 lung
HT29 colon = tested on: HT29 colon
HOP-92 NSCLC = tested on: HOP-92 NSCLC
SK-MEL-5 melanoma = tested on: SK-MEL-5 melanoma
CAKI-1 renal = tested on: CAKI-1 renal
COLO 205 colon = tested on: COLO 205 colon
SNB-75 CNS = tested on: SNB-75 CNS
TK-10 renal = tested on: TK-10 renal
K-562 leukemia = tested on: K-562 leukemia

Measured: TGI

CCCS(=O)(=O)O
> 100 µM: all assays above
